Source: patent US8236789B2, “1-adamantyl azetidin-2-one derivatives and drugs containing same” (Kowa Company, Ltd., priority 2008, dated 2012)

Experiments:
Assay type in all cases: biochemical
human 11β-HSD1 = target: T1, human 11β-HSD1 (Homo sapiens, UniProt P28845); experiment: Enzyme inhibitory activity assay, lysate of HEK293 cells stably expressing human 11β-HSD1, cortisol by competitive ELISA; conditions: Table 1; cell lysate, 100 nmol/L cortisone, NADPH, 37° C. 1 hour; read-out: in vitro assay (IC50 uM) h HSD1
T1 construct: expressed in transfected cells
Protocol: (§1) 1. Human 11β-HSD1-, Human 11β-HSD2- and Mouse 11β-HSD1-Gene Clonings and Establishment of Stably Expressing Cells
(§2) Human 11β-HSD1- and human 11β-HSD2-expressing vectors were transfected into human kidney-derived cell line, HEK293 cells, using a transfection reagent, jet PEI (Funakoshi). Mouse 11β-HSD1 was transfected to Chinese hamster ovary-derived cell line, CHO-K1 cells. Selection was conducted with 200-400 μg/mL of zeocine (Invitrogen) to provide stably expressing-cell clones. The stably expressing cells were suspended in buffer solution A (20 mmol/L Tris-HCl, pH 7.4, 250 mmol/L sucrose, 1 mmol/L EGTA, 1 mmol/L EDTA, 1 mmol/L MgCl2), sonicated, and then stored at −80° C.
(§3) 2. Assay of Enzyme Inhibitory Activity
(§4) An enzymatic reaction was conducted using a polystyrene 96-well plate. Each well was added with 1 μL of a test agent dissolved in DMSO and then diluted (0.003 to 3 mmol/L), and further added with 10 μL of cell lysate diluted to a concentration of 0.1 mg/mL to 0.4 mg/mL. Next, 90 μL of buffer solution A containing substrate (100 nmol/L cortisone or cortisol) and coenzyme (400 μmol/L NADPH or NAD+) was added and the mixture was incubated at 37° C. for 1 hour. The enzymatic reaction was stopped by treating at 95° C. for 3 minutes. Cortisol that was present in the reaction solution was determined by a competitive ELISA shown below.
(§5) Anti-rabbit IgG antibody (Chemi-con) diluted to 2 μg/mL with carbonate buffer solution (pH 9.6) was added in 100 μL each to a 96-well immuno plate (Nunc) and immobilized by an incubation at 4° C. overnight. […] After washed three times with buffer solution B containing 0.05% Tween 20, the plates were allowed to develop color by adding 100 μL, of color reagent, TMB (Moss). The color reaction was stopped by 25 μL of 1 mol/L sulfuric acid and the absorbance was determined at 450 nm with a microplate reader (Molecular Device, VersaMax).

human 11β-HSD2 = target: T2, human 11β-HSD2 (Homo sapiens, UniProt P80365); experiment: Enzyme inhibitory activity assay, lysate of HEK293 cells stably expressing human 11β-HSD2, cortisol by competitive ELISA; conditions: Table 1; cell lysate, 100 nmol/L cortisol, NAD+, 37° C. 1 hour; read-out: in vitro assay (IC50 uM) h HSD2
T2 construct: expressed in transfected cells
T2 sequence (P80365 1-405): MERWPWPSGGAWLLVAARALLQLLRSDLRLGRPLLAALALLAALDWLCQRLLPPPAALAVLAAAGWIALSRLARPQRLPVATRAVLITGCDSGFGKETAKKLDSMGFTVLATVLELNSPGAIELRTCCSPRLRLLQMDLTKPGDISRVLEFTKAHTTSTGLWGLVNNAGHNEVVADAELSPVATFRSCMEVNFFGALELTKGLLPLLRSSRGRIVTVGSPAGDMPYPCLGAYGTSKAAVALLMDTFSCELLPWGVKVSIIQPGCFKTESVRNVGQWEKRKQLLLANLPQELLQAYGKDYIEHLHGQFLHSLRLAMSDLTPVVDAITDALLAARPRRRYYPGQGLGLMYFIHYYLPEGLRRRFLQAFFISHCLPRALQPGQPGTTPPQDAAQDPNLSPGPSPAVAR
Protocol: as §1
Human 11β-HSD1-, human 11β-HSD2-, and mouse 11β-HSD1-gene clonings were conducted using as a template a reverse transcription product of human-liver RNA, human-kidney RNA (CELL APPLICATIONS), and mouse-kidney RNA respectively, by means of PCR cloning with reference to nucleotide sequences of Genbank Accession Nos. NM_005525, NM_000196, and NM_008288. The obtained PCR products of about 0.9 kbp, 1.2 kbp, and 0.9 kbp were subcloned into an expression vector pcDNA3.1+/Zeo (Invitrogen).
as §2, §3, §4
Anti-rabbit IgG antibody (Chemi-con) diluted to 2 μg/mL with carbonate buffer solution (pH 9.6) was added in 100 μL each to a 96-well immuno plate (Nunc) and immobilized by an incubation at 4° C. overnight. 50 μL of enzymatic reaction solution was put onto the plates, and further, anti-cortisol antibody (Cosmo Bio) and HRP-labeled cortisol (Cosmo Bio), diluted with buffer solution B (25 mmol/L Tris-HCl pH 7.4, 137 mmol/L NaCl, 2.68 mmol/L KCl), were added in 50 μL respectively and incubated at 4° C. overnight. After washed three times with buffer solution B containing 0.05% Tween 20, the plates were allowed to develop color by adding 100 μL, of color reagent, TMB (Moss). The color reaction was stopped by 25 μL of 1 mol/L sulfuric acid and the absorbance was determined at 450 nm with a microplate reader (Molecular Device, VersaMax).
The values of human 11β-HSD1, human 11β-HSD2, and mouse 11β-HSD1 activities were subtracted from 100, and the resultant values were regarded as the respective 11βHSD inhibition rates of example compounds. […] The comparison of human 11β-HSD1 and human 11β-HSD2 inhibiting activities is shown in Table 1, and the comparison of human 11β-HSD1 and mouse 11β-HSD1 inhibiting activities is shown in Table 2.

mouse 11β-HSD1 = target: T3, mouse 11β-HSD1 (Mus musculus, UniProt P50172); experiment: Enzyme inhibitory activity assay, lysate of CHO-K1 cells stably expressing mouse 11β-HSD1, cortisol by competitive ELISA; conditions: Table 2; cell lysate, 100 nmol/L cortisone, NADPH, 37° C. 1 hour; read-out: in vitro assay (IC50 uM) m HSD1
T3 construct: expressed in transfected cells
Protocol: as §1, §2, §3, §4, §5

T1 sequence (P28845 whole entry): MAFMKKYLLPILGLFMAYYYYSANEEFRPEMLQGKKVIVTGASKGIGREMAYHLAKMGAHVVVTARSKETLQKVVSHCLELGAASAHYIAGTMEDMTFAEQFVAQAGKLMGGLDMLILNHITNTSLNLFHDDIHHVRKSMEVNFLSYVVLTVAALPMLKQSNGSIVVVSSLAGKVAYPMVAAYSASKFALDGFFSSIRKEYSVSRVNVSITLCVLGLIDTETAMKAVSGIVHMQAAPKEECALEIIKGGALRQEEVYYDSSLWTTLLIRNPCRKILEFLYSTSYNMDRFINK
T3 sequence (P50172 whole entry): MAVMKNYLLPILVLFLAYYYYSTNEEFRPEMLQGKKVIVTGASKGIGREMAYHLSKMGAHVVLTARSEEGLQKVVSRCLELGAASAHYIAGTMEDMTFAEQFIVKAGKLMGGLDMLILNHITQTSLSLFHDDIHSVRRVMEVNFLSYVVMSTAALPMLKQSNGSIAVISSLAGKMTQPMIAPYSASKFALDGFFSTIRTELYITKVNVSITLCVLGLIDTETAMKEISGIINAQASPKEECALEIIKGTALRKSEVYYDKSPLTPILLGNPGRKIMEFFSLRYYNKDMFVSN

Row | Structure (SMILES) | IC50 (human 11β-HSD1) | IC50 (human 11β-HSD2) | IC50 (mouse 11β-HSD1)
1 | CC1(C)C(=O)N(C2C3CC4CC(C3)CC2C4)C1c1ccccc1 (centres unmarked) [Example 1, 1-(adamantan-2-yl)-3,3-dimethyl-4-phenylazetidin-2-one] | 0.013 µM | 3 to 30 µM | 0.077 µM
2 | CC1(C)C(=O)N(C2C3CC4CC(C3)CC2C4)C1c1ccc(Cl)cc1 (centres unmarked) [Example 22, 1-(adamantan-2-yl)-3,3-dimethyl-4-(4-chlorophenyl)azetidin-2-one] | 0.0095 µM | 15 µM | 0.66 µM
3 | COc1ccc(C2N(C3C4CC5CC(C4)CC3C5)C(=O)C2(C)C)cc1 (centres unmarked) [Example 23, 1-(adamantan-2-yl)-3,3-dimethyl-4-(4-methoxyphenyl)azetidin-2-one] | 0.01 µM | > 30 µM | –
4 | CC1(C)C(=O)N(C2C3CC4CC(C3)CC2C4)C1c1cccc(F)c1F (centres unmarked) [Example 24, 1-(adamantan-2-yl)-3,3-dimethyl-4-(2,3-difluorophenyl)azetidin-2-one] | 0.011 µM | > 30 µM | 0.1 µM
5 | CC1(C)C(=O)N(C2C3CC4CC(C3)CC2C4)C1c1ccc(Cl)c(Cl)c1 (centres unmarked) [Example 26, 1-(adamantan-2-yl)-3,3-dimethyl-4-(3,4-dichlorophenyl)azetidin-2-one] | 0.013 µM | > 30 µM | 0.46 µM
6 | CC1(C)C(=O)N(C2C3CC4CC(C3)CC2C4)C1c1ccc(F)c(F)c1 (centres unmarked) [Example 27, 1-(adamantan-2-yl)-3,3-dimethyl-4-(3,4-difluorophenyl)azetidin-2-one] | 0.017 µM | 8.8 µM | –
7 | CC1(C)C(=O)N(C2C3CC4CC(C3)CC2C4)C1c1ccc(F)c(Cl)c1 (centres unmarked) [Example 29, 1-(adamantan-2-yl)-3,3-dimethyl-4-(3-chloro-4-fluorophenyl)azetidin-2-one] | 0.011 µM | > 30 µM | 0.59 µM
8 | COc1ccccc1C1N(C2C3CC4CC(C3)CC2C4)C(=O)C1(C)C (centres unmarked) [Example 33, 1-(adamantan-2-yl)-3,3-dimethyl-4-(2-methoxyphenyl)azetidin-2-one] | 0.0067 µM | 6.7 µM | 0.072 µM
9 | CC1(C)C(=O)N(C2C3CC4CC(C3)CC2C4)C1c1cc(F)cc(F)c1F (centres unmarked) [Example 35, 1-(adamantan-2-yl)-3,3-dimethyl-4-(2,3,5-trifluorophenyl)azetidin-2-one] | 0.053 µM | > 30 µM | 0.61 µM
10 | CC(C)c1ccc(C2N(C3C4CC5CC(C4)CC3C5)C(=O)C2(C)C)cc1 (centres unmarked) [Example 37, 1-(adamantan-2-yl)-3,3-dimethyl-4-(4-isopropylphenyl)azetidin-2-one] | 0.026 µM | 14 µM | –
11 | CC(C)(C)c1ccc(C2N(C3C4CC5CC(C4)CC3C5)C(=O)C2(C)C)cc1 (centres unmarked) [Example 38, 1-(adamantan-2-yl)-3,3-dimethyl-4-(4-t-butylphenyl)azetidin-2-one] | 0.079 µM | 3 to 30 µM | –
12 | CC1(C)C(=O)N(C2C3CC4CC(C3)CC2C4)C1c1ccccc1F (centres unmarked) [Example 39, 1-(adamantan-2-yl)-3,3-dimethyl-4-(2-fluorophenyl)azetidin-2-one] | 0.0034 µM | 3 to 30 µM | 0.055 µM
13 | COc1ccc(C2N(C3C4CC5CC(C4)CC3C5)C(=O)C2(C)C)c(F)c1 (centres unmarked) [Example 40, 1-(adamantan-2-yl)-3,3-dimethyl-4-(2-fluoro-4-methoxyphenyl)azetidin-2-one] | 0.0059 µM | > 30 µM | 0.34 µM
14 | CC1(C)C(=O)N(C2C3CC4CC(C3)CC2C4)C1c1ccccc1C(F)(F)F (centres unmarked) [Example 41, 1-(adamantan-2-yl)-3,3-dimethyl-4-(2-trifluoromethylphenyl)azetidin-2-one] | 0.0087 µM | 3 to 30 µM | 0.079 µM
15 | CC1(C)C(=O)N(C2C3CC4CC(C3)CC2C4)C1c1ccccc1Cl (centres unmarked) [Example 44, 1-(adamantan-2-yl)-3,3-dimethyl-4-(2-chlorophenyl)azetidin-2-one] | 0.0055 µM | 3 to 30 µM | 0.076 µM
16 | CC1(C)C(=O)N([C@H]2C3CC4CC2C[C@](O)(C4)C3)C1c1cccc2ccccc12 (stereo partly drawn) [Example 47, trans-1-(5-hydroxyadamantan-2-yl)-3,3-dimethyl-4-(naphthalen-1-yl)azetidin-2-one] | 0.0075 µM | – | 0.0056 µM
17 | COc1ccc(C2N([C@H]3C4CC5CC3C[C@](O)(C5)C4)C(=O)C2(C)C)c2ccccc12 (stereo partly drawn) [Example 48, trans-1-(5-hydroxyadamantan-2-yl)-3,3-dimethyl-4-(4-methoxynaphthalen-1-yl)azetidin-2-one] | 0.0088 µM | – | 0.33 µM
18 | CC1(C)C(=O)N([C@H]2C3CC4CC2C[C@](F)(C4)C3)C1c1cccc(Cl)c1Cl (stereo partly drawn) [Example 52, trans-1-(5-fluoroadamantan-2-yl)-3,3-dimethyl-4-(2,3-dichlorophenyl)azetidin-2-one] | 0.0046 µM | – | 0.027 µM
19 | CC1(C)C(=O)N(C2C3CC4CC(C3)CC2C4)C1c1cccc(Cl)c1 (centres unmarked) [Example 53, 1-(adamantan-2-yl)-3,3-dimethyl-4-(3-chlorophenyl)azetidin-2-one] | 0.0039 µM | – | 0.025 µM
20 | CSc1ccc(C2N(C3C4CC5CC(C4)CC3C5)C(=O)C2(C)C)cc1 (centres unmarked) [Example 55, 1-(adamantan-2-yl)-3,3-dimethyl-4-[4-(methylthio)phenyl]azetidin-2-one] | 0.0039 µM | – | 0.87 µM
21 | COc1ccc(C2N(C3C4CC5CC(C4)CC3C5)C(=O)C2(C)C)c(C)c1 (centres unmarked) [Example 56, 1-(adamantan-2-yl)-3,3-dimethyl-4-(4-methoxy-2-methylphenyl)azetidin-2-one] | 0.0079 µM | > 30 µM | 0.46 µM
22 | CC1(C)C(=O)N(C2C3CC4CC(C3)CC2C4)C1c1cccc2c1OCC=CC2 (centres unmarked) [Example 67, 1-(adamantan-2-yl)-4-(2,5-dihydrobenzo[b]oxepin-9-yl)-3,3-dimethylazetidin-2-one] | 0.065 µM | – | 0.029 µM
23 | CC1(C)C(=O)N(C2C3CC4CC(C3)CC2C4)C1c1cccc2c1OCCCC2 (centres unmarked) [Example 68, 1-(adamantan-2-yl)-3,3-dimethyl-4-(benzo[b]oxepan-9-yl)azetidin-2-one] | 0.026 µM | 3 to 30 µM | 0.02 µM
24 | CC1(C)C(=O)N(C2C3CC4CC(C3)CC2C4)C1Cc1ccccc1 (centres unmarked) [Example 69, 4-benzyl-1-(adamantan-2-yl)-3,3-dimethylazetidin-2-one] | 0.02 µM | 0.28 µM | 0.0051 µM
